Data taken from the NIST ThermoML archive (doi:10.1021/je020110g).

How the values were obtained:
[1] = excess molar enthalpy (molar enthalpy of mixing); xn = mol fraction of the nth substance listed; conditions: 298.15 K, 101.3 kPa, Liquid, Flow calorimetry
[2] = Liquid

CCCCBr [1-bromobutane] + CC(C)CO
[1]
Conditions | excess molar enthalpy [kcal/mol]
x2 = 0.0421 | 0.127
x2 = 0.0942 | 0.203
x2 = 0.1932 | 0.269
x2 = 0.2938 | 0.298
x2 = 0.3468 | 0.304
x2 = 0.3957 | 0.304
x2 = 0.4476 | 0.298
x2 = 0.499 | 0.288
x2 = 0.6 | 0.258
x2 = 0.7021 | 0.213
x2 = 0.8052 | 0.152
x2 = 0.906 | 0.0789
x2 = 0.9587 | 0.038

CCC(C)O (stereo unspecified) [butan-2-ol]
[2]
Conditions | vapor or sublimation pressure [kPa]
278.15 K | 0.519
283.15 K | 0.78
288.15 K | 1.137
293.15 K | 1.648
298.15 K | 2.324
303.15 K | 3.256
308.15 K | 4.462
313.15 K | 6.048
318.15 K | 8.105
323.15 K | 10.71

CC(C)CO [2-methyl-1-propanol]
[2]
Conditions | vapor or sublimation pressure [kPa]
278.15 K | 0.335
283.15 K | 0.505
288.15 K | 0.739
293.15 K | 1.057
298.15 K | 1.501
303.15 K | 2.133
308.15 K | 2.956
313.15 K | 4.026
318.15 K | 5.444
323.15 K | 7.237

CCCCBr [1-bromobutane] + CCC(C)O
[1]
Conditions | excess molar enthalpy [kcal/mol]
x2 = 0.0424 | 0.124
x2 = 0.0948 | 0.221
x2 = 0.1942 | 0.306
x2 = 0.2951 | 0.35
x2 = 0.3482 | 0.363
x2 = 0.3973 | 0.369
x2 = 0.4492 | 0.366
x2 = 0.5006 | 0.36
x2 = 0.6015 | 0.333
x2 = 0.7035 | 0.285
x2 = 0.8062 | 0.212
x2 = 0.9066 | 0.117
x2 = 0.959 | 0.0588

CCCCBr [1-bromobutane]
[2]
Conditions | vapor or sublimation pressure [kPa]
278.15 K | 1.86
283.15 K | 2.48
288.15 K | 3.265
293.15 K | 4.261
298.15 K | 5.506
303.15 K | 7.039
308.15 K | 8.899
313.15 K | 11.15
318.15 K | 13.87
323.15 K | 17.09
